Data: US20160008382A1, “METHODS OF TREATMENT OF CANCER” (Millennium Pharmaceuticals, Inc., priority 2012, published 2016)

Columns and labels:
[1] = test system: hematological and solid tumor xenograft models; conditions: range of hematological and solid tumor xenograft models; cited from earlier work
nasopharyngeal cancer = assay: Treatment of nasopharyngeal cancer patients with the compound of formula (III-A), IV twice-weekly; clinical response; assay type: in vivo, human
Experimental: (1) Tissue Microarray (obtained from US Biomax, Inc.) of primary nasopharyngeal cancer (n=35) (2) Tissue Microarray of metastatic nasopharyngeal cancer (obtained from US Biomax, Inc.) (n=15) (3) Tissue Microarray of other histologies of head and neck cancers (obtained from US Biomax, Inc.) (n=68) (4) Archival primary tumor biopsy samples of patients with head and neck squamous cell cancers (n=14). All samples were obtained under the appropriate informed consent. The patients were administered the compound of formula (III-A) on a twice-weekly schedule (days 1, 4, 8 and 11 of a 21-day cycle) as an IV injection. Of the primary tumor samples in (4), there were three patients with nasopharyngeal cancer.

[2] = on exposure to aqueous solution or plasma; cited from earlier work
[3] = test system: relapsed or refractory mantle cell lymphoma; conditions: patients with relapsed or refractory mantle cell lymphoma, Phase II; cited from earlier work

CC(C)C[C@H](NC(=O)CNC(=O)c1cc(Cl)ccc1Cl)B1OC(=O)C(CC(=O)O)(CC(=O)O)O1 [compound of formula (III-A), 2,2′-{2-[(1R)-1-({[(2,5-dichlorobenzoyl)amino]acetyl}amino)-3-methylbutyl]-5-oxo-1,3,2-dioxaborolane-4,4-diyl}diacetic acid]
anti-tumor activity in xenograft models [1]: anti-tumor activity
clinical response, Patient 1 (nasopharyngeal cancer; Patient 1, metastatic nasopharyngeal cancer of a squamous cell type, IV injection days 1, 4, 8 and 11 of a 21-day cycle, NFκB p65 H-score 300): durable partial response
Responder/Non-responder, Patient 1 (nasopharyngeal cancer; Patient 1, nasopharyngeal cancer, NFκB p65 IHC assay H-score 300): Responder
disease progression, Patient 2 (time to progression) (nasopharyngeal cancer; Patient 2, nasopharyngeal cancer, IV injection days 1, 4, 8 and 11 of a 21-day cycle, NFκB p65 H-score 200): ≤ 4 cycles
Responder/Non-responder, Patient 2 (nasopharyngeal cancer; Patient 2, nasopharyngeal cancer, NFκB p65 IHC assay H-score 200): Non-responder
clinical response, Patient 3 (nasopharyngeal cancer; Patient 3, nasopharyngeal cancer, IV injection days 1, 4, 8 and 11 of a 21-day cycle, NFκB p65 H-score 160): progressive disease
Responder/Non-responder, Patient 3 (nasopharyngeal cancer; Patient 3, nasopharyngeal cancer, NFκB p65 IHC assay H-score 160): Non-responder
hydrolysis to the active form MLN2238 [2]: rapidly hydrolyzes

CC(C)C[C@H](NC(=O)[C@H](Cc1ccccc1)NC(=O)c1cnccn1)B(O)O [bortezomib, N-2-pyrazinecarbonyl-L-phenylalanine-L-leucineboronic acid]
activity in patients [3]: activity
